# Test results from publication PMC2787382 (The Journal of Biological Chemistry, 2009).
# What was measured:
# dP2XA = dP2XA (Dictyostelium discoideum, UniProt Q86JM7); experiment: two-electrode voltage clamp, Xenopus oocytes, peak current; assay type: cell-based
# dP2XB = target: T1, dP2XB (Dictyostelium discoideum, UniProt Q553Y1); experiment: as above; assay type: cell-based
# T1 sequence (Q553Y1 1-369): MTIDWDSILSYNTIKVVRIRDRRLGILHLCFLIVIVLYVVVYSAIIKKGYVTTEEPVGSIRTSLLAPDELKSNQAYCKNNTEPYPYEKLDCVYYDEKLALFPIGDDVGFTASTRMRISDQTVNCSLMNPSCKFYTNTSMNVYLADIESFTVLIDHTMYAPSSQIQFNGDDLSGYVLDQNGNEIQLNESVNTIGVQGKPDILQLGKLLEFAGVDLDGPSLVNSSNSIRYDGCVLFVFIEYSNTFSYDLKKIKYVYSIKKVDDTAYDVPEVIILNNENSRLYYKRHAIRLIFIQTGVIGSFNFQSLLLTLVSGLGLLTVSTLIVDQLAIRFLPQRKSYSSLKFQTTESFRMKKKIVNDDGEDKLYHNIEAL
# dP2XE [1] = target: T2, dP2XE (Dictyostelium discoideum, UniProt Q54JH4); experiment: cell-based
# T2 sequence (Q54JH4 1-388): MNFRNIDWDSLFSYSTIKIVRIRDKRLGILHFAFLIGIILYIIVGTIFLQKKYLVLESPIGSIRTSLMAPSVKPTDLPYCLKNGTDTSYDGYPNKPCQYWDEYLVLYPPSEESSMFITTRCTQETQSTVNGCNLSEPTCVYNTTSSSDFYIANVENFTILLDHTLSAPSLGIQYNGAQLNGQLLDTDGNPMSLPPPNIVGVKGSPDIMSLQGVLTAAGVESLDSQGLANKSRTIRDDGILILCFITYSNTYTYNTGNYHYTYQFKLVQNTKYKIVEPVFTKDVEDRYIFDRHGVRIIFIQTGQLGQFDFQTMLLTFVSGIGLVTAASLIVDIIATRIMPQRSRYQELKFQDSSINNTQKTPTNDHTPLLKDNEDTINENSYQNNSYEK
# dP2XE [2] = target: T2, dP2XE; experiment: two-electrode voltage clamp, Xenopus oocytes, peak current; assay type: cell-based; settings: weak partial agonist; ND98K+, pH 6.2, −70 mV, room temperature
# Sequence of dP2XA (Q86JM7 whole entry): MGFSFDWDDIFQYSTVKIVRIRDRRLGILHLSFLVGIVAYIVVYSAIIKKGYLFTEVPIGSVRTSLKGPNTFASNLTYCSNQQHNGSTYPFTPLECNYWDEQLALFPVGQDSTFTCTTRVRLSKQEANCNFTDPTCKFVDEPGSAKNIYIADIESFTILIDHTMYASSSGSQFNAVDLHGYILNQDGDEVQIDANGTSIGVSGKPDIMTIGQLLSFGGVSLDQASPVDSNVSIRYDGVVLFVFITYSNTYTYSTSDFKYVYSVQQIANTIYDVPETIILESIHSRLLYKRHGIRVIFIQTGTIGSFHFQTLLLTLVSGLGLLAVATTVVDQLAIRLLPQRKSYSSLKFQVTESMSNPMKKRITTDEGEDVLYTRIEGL
SMILES,EC50 (dP2XA) [µM],EC50 (dP2XB) [µM],EC50 (dP2XE [1]) [µM],"maximal response, % that of ATP (dP2XE [2]) [%]"
Nc1ncnc2c1ncn2[C@@H]1O[C@H](COP(=O)(O)OP(=O)(O)OP(=O)(O)O)[C@@H](O)[C@H]1O [ATP],97,266,511,–
"Nc1ncnc2c1ncn2[C@@H]1O[C@H](COP(=O)(O)OP(=O)(O)NP(=O)(O)O)[C@@H](O)[C@H]1O [β,γ-Imido-ATP]",3.1,85,–,22.3 ± 6.4
